This is an account of results in PMC6966494, “Surface Plasmon Resonance as a Tool for Ligand Binding Investigation of Engineered GPR17 Receptor, a G Protein Coupled Receptor Involved in Myelination” (Frontiers in Chemistry, 2020).

Experiment [1] has as its system primary OPCs. Description: OPC differentiation assay (MBP+ cells, immunocytochemistry). The class given is cell-based, rat. The note with it: 48 h. As for the experimental part: (§1) The pharmacological profile of Asinex 1 was assessed in three different in vitro assays of increasing complexity in oligodendrocyte precursor cells (OPCs) natively expressing GPR17. Primary rat OPCs were cultured either alone or in the presence of mouse DRG neurons, according to a well-established protocol, previously described in Fumagalli et al. ([2015]). The endogenous GPR17 ligands UDP and LTD4 were selected as reference ligands. For more details on culture preparation and analysis, see Supplementary Information.
(§2) GPR17 ligands were tested both in primary OPCs culture and in OPC/DRG co-cultures to assess their pro-differentiation and pro-myelination effect, respectively. According to the type of culture, a specific protocol of treatment was set up. For primary OPCs, cells were seeded on 13 mm poly-D,L-ornithine-coated coverslips (2 × 10^4 cells/well) and maintained for 2 days in Neurobasal medium supplemented with B27 and proliferative factors (PDGF-BB and bFGF). Afterwards, OPC differentiation was induced by removing proliferative factors and by adding T3 and pharmacological treatments with Asinex 1 (1 or 10 nM) and LTD4 (200 nM), selected as reference compound, were performed the following day. After 48 h, cells were fixed for immunocytochemistry (ICC). For OPC/DRG co-cultures, Asinex 1 (10 nM) and UDP (100 μM) were added to cultures at day 4. The pharmacological treatment was repeated every 2 days up to day 15, when cells were fixed for ICC analysis. For more details, see Supplementary Information.
Oligodendrocyte precursor cell cultures
Primary oligodendrocyte precursor cells (OPCs) were isolated from mixed glial cultures prepared from postnatal day 2 Sprague-Dawley rat cortex by shaking cells on an orbital shaker at 200 rpm, as previously described (Fumagalli et al., 2015). OPCs were then collected and separated from microglia by incubation for 1 h in an uncoated Petri dish. […]

The subject of experiment [2] is OPC-DRG co-cultures. Description: Myelination assay in OPC-DRG co-cultures (Myelination Index). The class given is cell-based, rat OPCs, mouse DRG neurons. The note with it: day 4 to day 15. As for the experimental part:
as §1
as §2, with “The pharmacological treatment was repeated every 2 days up to day 15, when cells were fixed for ICC analysis. For more details, see Supplementary Information.” left out

Experiment [3] addresses T1, GPR17 (Rattus norvegicus, UniProt Q09QM4).
T1 construct: oligodendrocyte precursor cells (OPCs) natively expressing GPR17; endogenous in cells; host or cells: primary OPCs from postnatal day 2 Sprague-Dawley rat cortex
The experiment can be described thus: cAMP assay: inhibition of forskolin-stimulated adenylyl cyclase activity in primary OPCs. The class given is cell-based. As for the experimental part:
as §1
In order to determine the intracellular cAMP levels, primary purified OPCs were treated with Asinex 1 after 6 days in culture, when GPR17 expression reaches the maximum peak. A competitive protein binding method was used following the procedure previously described (Fumagalli et al., [2015]). Briefly, culture medium was removed, and cells were incubated at 37°C for 15 min with 400 μL of Neurobasal medium in the presence of the phosphodiesterase inhibitor Ro20-1724 (20 μM). The concentration-response curve of tested ligands was assessed by measuring their ability to inhibit cAMP accumulation stimulated by 10 μM forskolin. Asinex 1 was added to cells for 15 min at graded concentration (0.1–50 nM). […] Reactions were terminated by medium removal and addition of 200 μL of 0.4 N HCl. After 30 min, lysates were neutralized with 50 μL of 4 N KOH, and the suspension was centrifuged at 800× g for 5 min. For determination of cAMP, cAMP-binding protein isolated from bovine adrenal glands was incubated with [^3H]cAMP (2 nM), 50 μL of cell lysate or cAMP standard (0–16 pmol) at 4°C for 150 min, in a total volume of 300 μL. Bound radioactivity was separated by rapid filtration through GF/C glass fiber filters and washed twice with 4 mL of 50 mM Tris-HCl, pH 7.4. Radioactivity was measured by liquid scintillation spectrometry.
(In general: cAMP levels reflect the balance of adenylyl cyclase and phosphodiesterase activity.)

The subject of experiment [4] is GPR17. Also noted: method as in earlier work. The conditions noted are these: literature functional assay, ref Abbracchio et al., 2006, Ciana et al., Eberini et al., 2011; cited from earlier work.

Structures are written as SMILES.

T1 sequence (Q09QM4 whole entry): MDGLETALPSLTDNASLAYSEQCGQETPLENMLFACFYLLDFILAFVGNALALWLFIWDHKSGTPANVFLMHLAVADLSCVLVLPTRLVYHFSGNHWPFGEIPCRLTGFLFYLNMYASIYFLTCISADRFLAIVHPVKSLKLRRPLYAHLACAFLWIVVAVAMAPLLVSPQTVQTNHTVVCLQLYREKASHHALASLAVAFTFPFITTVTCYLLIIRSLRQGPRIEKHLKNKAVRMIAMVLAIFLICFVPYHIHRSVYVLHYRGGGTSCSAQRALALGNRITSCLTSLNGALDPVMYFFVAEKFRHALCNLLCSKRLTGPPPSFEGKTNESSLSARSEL

Turning to `CCCCC/C=C\C\C=C/C=C/C=C/[C@@H](SC[C@H](N)C(=O)NCC(=O)O)[C@@H](O)CCCC(=O)O` [LTD4], the “percentage of MBP+ cells (control set to 100%)” value in experiment [1] (200 nM) stood at 171.0 ± 21.70%.
On to `COc1ccc(-n2c(SC(C)C(=O)Nc3ccccc3)nnc2-c2ccccc2OC)cc1` (stereo not drawn) [Asinex 1, 2-[[5-(2-methoxyphenyl)-4-(4-methoxyphenyl)-4H-1,2,4-triazol-3-yl]thio]-N-phenyl-propanamide], for which the “Myelination Index (control 100%)” value in experiment [2] (10 nM) was 240.3 ± 64.43%. For the same compound, the EC50 (in general, the concentration at which the effect is half-maximal) in experiment [3] (primary OPCs, 10 μM forskolin, 0.1–50 nM, read-out: EC50, inhibition of forskolin-stimulated cAMP formation) was 6.5 ± 0.8 nM. Besides, the “pharmacological profile at GPR17” value in experiment [3] (primary rat OPCs, nucleotide binding site) is recorded as “full agonist”. Besides, the “percentage of MBP+ cells (control set to 100%)” value in experiment [1] (1 nM) amounted to 166.5 ± 16.21%; in experiment [1] (10 nM), 158.3 ± 15.77%.
As for `CSCCNc1nc(SCCC(F)(F)F)nc2c1ncn2[C@@H]1O[C@H](COP(=O)(O)OP(=O)(O)C(Cl)(Cl)P(=O)(O)O)[C@@H](O)[C@H]1O` [Cangrelor], in experiment [4], the “ratio between Cangrelor and Asinex 1 affinities” value is 7. Moreover, the IC50 (commonly the concentration needed to halve the response being measured) in experiment [3] (primary OPCs, constant ASN 1 concentration of 10 nM, read-out: IC50, antagonism of ASN 1-mediated inhibition of forskolin-stimulated adenylyl cyclase activity) worked out at 10.2 ± 0.8 nM.
Turning to `O=c1ccn([C@@H]2O[C@H](COP(=O)(O)OP(=O)(O)O)[C@@H](O)[C@H]2O)c(=O)[nH]1` [UDP], the “Myelination Index (control 100%)” value in experiment [2] (100 μM) is given as 193.9 ± 32.31%.
